Paper PMC12152147, “DDB1 engagement defines the selectivity of S656 analogs for cyclin K degradation over CDK inhibition” (EMBO Reports, 2025)
Values joined by “and” are separate entries in the source; they are usually repeats but may differ in a detail not shown here. Identical values can stand only once.

Tests used:
OCI-AML5 cells proteome = assay: Whole-proteome mass spectrometry analysis; assay type: cell-based, H. sapiens; details: OCI-AML5, 5 hours, 8 μM S656
Experimental: Whole proteome was performed as previously described (Moison et al, [2024]). We treated 10 million OCI-AML5 cells in triplicate with DMSO or 8 μM S656 for 5 h. Collected cells were washed in PBS and cell pellets lysed in Triton X-100 buffer (10 mM PIPES pH 7.4, 0.5% Triton X-100, 300 mM Sucrose, 100 mM NaCl, 3 mM MgCl2, 0.5 mM EDTA + protease inhibitors). Following MS analysis, the data were processed using PEAKS X Pro (Bioinformatics Solutions, Waterloo, ON) and a Uniprot human database (20366 entries) with trypsin as the enzyme. Differential Enrichment analysis of Proteomics data (DEP) package (Zhang et al, [2018]) in R was used to analyze the data (excluding proteins identified based on a single peptide), including data filtering, normalization, imputation of missing values and statistical testing of differentially expressed proteins.

OCI-AML5 cells = assay: Cell cycle profile (Hoechst 33342 flow cytometry); assay type: cell-based, H. sapiens; details: 24 h
Experimental: For cell cycle experiments, 500,000 cells in exponential growth phase were incubated in pre-warmed media containing 10 μg/mL Hoechst 33342 during 45 min in incubator (37 °C in 5% CO2). After wash, cells were resuspended in cold media and recorded on BD FACSCelesta cytometer at low flow rate and analyzed with FlowJo v10 (Tree Star).

[1] = system: OCI-AML5 and U937 cell lines; assay: Synergistic interaction assay with THZ531 (Bliss score); assay type: cell-based
Source text: 3. It may be worthwhile to investigate whether the CDK12/13 inhibitor THZ531 could synergize with S656 or analogues like UOM-005636 that specifically degrade Cyclin K, in combination cytotoxicity assays, assessing selective suppression of AML viability over normal cells. Both […]
inhibiting CDK12, and S656 / UOM-005636 by degrading Cyclin K. Similar synergistic effects were observed by Katharina et al., where THZ531 promoted prostate ca ncer cell sensitivity to androgen deprivation therapy [Frei, K et. al. Inhibition of the Cyclin K-CDK12 complex induces DNA damage and increases the effect of androgen deprivation therapy in prostate cancer. Int J […]
Indeed, THZ531 is a covalent CDK12/13 inhibitor that specifically binds to the kinase pocket of […]
pocket of CDK12, and that pre-incubation with THZ531 competes with S656-mediated Cyclin K degradation (see Figure 5E).
We performed a synergistic interaction assay between THZ531 and S656 or UOM-005636 in OCI-AML5 and U937 cell lines (see below). […]
interactions between THZ531 and our cyclin K degrader molecules. This is likely due to both drugs competing for the same binding site, rather than acting through complementary pathways. […]

[2] = biological target: T1, OCI-AML5 total protein extracts (cyclin K, CDKs, DDB1) (Homo sapiens, UniProt P21439); assay: Pull-down with immobilized probes and quantitative mass spectrometry; assay type: binding, H. sapiens; details: protein ABCB4 (P21439)
T1 construct: endogenous in cells; host or cells: OCI-AML5 total protein extract
Experimental: (§1) Probe compounds were immobilized through their terminal amine on NHS-sepharose beads as previously described (Médard et al, [2015]). The prepared beads were then washed in PBS and equilibrated in Triton X-100 buffer. For each replicate, 1–2 mg of total proteins (2 mg/ml) were incubated end-over-end with 25 μl of beads overnight at 4 °C in low protein binding microtubes (Sarstedt). The samples were then washed twice in Triton X-100 buffer, transferred to new microtubes and further washed six times in PBS including another microtube transfer at the last wash. Beads pellets were resuspended in 50 mM ammonium bicarbonate and subjected to reduction, alkylation and tryptic digest as described above. Peptides were separated on an home-made reversed-phase column (150-μm i.d. by 200 mm) with a 56-min gradient from 10 to 30% ACN-0.2% FA and a 600-nl/min flow rate on a Easy nLC-1200 connected to a Exploris 480 (ThermoFisher Scientific, San Jose, CA). Each full MS spectrum acquired at a resolution of 120,000 was followed by tandem-MS (MS-MS) spectra acquisition on the most abundant multiply charged precursor ions for 3 s. Tandem-MS experiments were performed using higher energy collision dissociation (HCD) at a collision energy of 34%. The data were processed using PEAKS X Pro (Bioinformatics Solutions, Waterloo, ON) and a Uniprot human database (20366 entries). Mass tolerances on precursor and fragment ions were 10 ppm and 0.01 Da, respectively. Fixed modification was carbamidomethyl (C). Variable selected posttranslational modifications were acetylation (N-ter), oxidation (M), deamidation (NQ), phosphorylation (STY). The data were visualized with Scaffold 5.0 (protein threshold, 99%, with at least 2 peptides identified and a false-discovery rate [FDR] of 1% for peptides).
(§2) Differential Enrichment analysis of Proteomics data (DEP) package (Zhang et al, [2018]) in R was used to analyze the data (excluding proteins identified based on a single peptide), including data filtering, normalization, imputation of missing values and statistical testing of differentially expressed proteins.

[3] = biological target: T2, OCI-AML5 total protein extracts (cyclin K, CDKs, DDB1) (Homo sapiens, UniProt Q86UQ4); assay: as above; assay type: binding, H. sapiens; details: protein ABCA13 (Q86UQ4)
T2 construct: endogenous in cells; host or cells: OCI-AML5 total protein extract
Experimental: as §1, §2

[4] = biological target: T3, OCI-AML5 total protein extracts (cyclin K, CDKs, DDB1) (Homo sapiens, UniProt Q16531); assay: as above; assay type: binding, H. sapiens; details: OCI-AML5 total protein extracts
T3 construct: endogenous in cells; host or cells: OCI-AML5 total protein extract
Experimental: as §1, §2

tumor growth = system: tumor growth; set-up: method as in Dieter et al. (PMID34289372); details: orally in mice, 20 mg/kg, 5 days per week; ref Dieter et al. (PMID34289372); cited from earlier work
[5] = centered abundance, competition (compe)
[6] = probe vs probe with competition
[7] = probe with competition (compe) vs UOM-005839
[8] = probe with competition (compe) vs beads

T1 sequence (P21439 whole entry): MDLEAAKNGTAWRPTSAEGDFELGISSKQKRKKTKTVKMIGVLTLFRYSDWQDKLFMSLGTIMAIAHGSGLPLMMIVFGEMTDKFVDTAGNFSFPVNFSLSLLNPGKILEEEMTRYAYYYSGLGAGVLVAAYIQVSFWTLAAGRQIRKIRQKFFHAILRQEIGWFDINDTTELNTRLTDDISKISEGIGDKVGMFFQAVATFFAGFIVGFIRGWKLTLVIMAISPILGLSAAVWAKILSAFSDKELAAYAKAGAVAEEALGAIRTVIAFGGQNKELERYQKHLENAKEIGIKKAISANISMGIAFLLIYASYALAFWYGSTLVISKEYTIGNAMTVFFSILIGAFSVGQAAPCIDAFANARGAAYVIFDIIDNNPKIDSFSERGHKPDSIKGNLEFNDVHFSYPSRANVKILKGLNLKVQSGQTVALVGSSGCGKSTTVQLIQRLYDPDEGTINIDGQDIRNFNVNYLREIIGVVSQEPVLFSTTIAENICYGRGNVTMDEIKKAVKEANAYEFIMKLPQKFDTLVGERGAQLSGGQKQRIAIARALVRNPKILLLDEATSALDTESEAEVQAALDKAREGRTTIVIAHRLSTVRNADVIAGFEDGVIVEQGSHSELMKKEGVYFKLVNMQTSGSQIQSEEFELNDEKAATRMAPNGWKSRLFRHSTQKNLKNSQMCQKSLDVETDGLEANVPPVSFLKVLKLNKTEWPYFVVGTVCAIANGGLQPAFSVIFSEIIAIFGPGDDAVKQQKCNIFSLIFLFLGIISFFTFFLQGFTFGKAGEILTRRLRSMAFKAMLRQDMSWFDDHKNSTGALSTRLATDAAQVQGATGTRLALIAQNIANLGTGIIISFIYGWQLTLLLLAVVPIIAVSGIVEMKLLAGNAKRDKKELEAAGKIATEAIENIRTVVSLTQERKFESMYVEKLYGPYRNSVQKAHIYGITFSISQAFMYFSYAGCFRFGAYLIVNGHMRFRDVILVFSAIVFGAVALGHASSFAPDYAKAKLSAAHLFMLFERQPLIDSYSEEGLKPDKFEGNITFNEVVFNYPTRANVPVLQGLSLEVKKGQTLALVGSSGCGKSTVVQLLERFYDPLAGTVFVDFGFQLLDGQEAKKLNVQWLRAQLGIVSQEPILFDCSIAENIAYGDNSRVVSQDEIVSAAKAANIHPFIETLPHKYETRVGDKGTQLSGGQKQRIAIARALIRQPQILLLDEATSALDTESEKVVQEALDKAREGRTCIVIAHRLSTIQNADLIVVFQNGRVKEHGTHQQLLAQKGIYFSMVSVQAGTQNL
T3 sequence (Q16531 whole entry): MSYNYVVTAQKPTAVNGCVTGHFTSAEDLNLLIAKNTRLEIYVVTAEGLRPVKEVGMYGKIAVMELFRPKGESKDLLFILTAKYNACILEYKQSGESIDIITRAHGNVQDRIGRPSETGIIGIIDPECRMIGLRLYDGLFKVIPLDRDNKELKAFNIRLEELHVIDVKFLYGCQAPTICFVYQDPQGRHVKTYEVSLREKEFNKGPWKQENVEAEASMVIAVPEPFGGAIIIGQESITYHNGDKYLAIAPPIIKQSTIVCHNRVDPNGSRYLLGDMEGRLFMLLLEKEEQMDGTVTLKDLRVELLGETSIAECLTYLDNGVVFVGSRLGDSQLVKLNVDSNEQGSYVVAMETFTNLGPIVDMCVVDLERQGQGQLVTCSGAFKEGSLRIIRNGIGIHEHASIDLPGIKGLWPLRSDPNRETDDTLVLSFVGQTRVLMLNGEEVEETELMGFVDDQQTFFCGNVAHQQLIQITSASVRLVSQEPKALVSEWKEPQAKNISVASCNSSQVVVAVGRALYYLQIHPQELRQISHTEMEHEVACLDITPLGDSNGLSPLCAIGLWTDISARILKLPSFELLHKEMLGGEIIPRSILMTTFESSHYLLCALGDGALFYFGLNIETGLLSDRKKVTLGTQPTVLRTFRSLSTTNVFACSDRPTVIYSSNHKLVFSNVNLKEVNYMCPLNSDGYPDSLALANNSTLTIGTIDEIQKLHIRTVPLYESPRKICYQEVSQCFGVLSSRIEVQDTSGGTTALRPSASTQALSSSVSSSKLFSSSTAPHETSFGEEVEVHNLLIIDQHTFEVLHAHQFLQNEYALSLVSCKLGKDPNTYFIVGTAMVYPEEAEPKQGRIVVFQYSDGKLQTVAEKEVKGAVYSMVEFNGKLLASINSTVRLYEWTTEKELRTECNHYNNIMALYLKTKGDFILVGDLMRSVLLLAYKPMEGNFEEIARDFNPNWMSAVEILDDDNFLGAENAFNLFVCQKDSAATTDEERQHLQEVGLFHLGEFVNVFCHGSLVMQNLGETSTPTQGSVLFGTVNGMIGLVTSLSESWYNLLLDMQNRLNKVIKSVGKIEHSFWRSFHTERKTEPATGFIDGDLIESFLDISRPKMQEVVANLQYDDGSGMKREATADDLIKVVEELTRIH

With CN(C)c1ccc(CC(=O)Nc2ncc(SCc3cccnc3)s2)cc1 [S656] the “log2FC CCNK” value (OCI-AML5 cells proteome) was -7.264, the “log2FC GNL1” value (OCI-AML5 cells proteome) was -6.619 and the “log2FC PM34” value (OCI-AML5 cells proteome) was -4.278. For the same compound, the “log2FC PMYT1” value (OCI-AML5 cells proteome) was -4.723, the “log2FC RIOK2” value (OCI-AML5 cells proteome) was -4.751 and the “percentage of cells in G1” value (OCI-AML5 cells; S656 1uM) was 50.8% and 63.1% and 58.6%. The “percentage of cells in G2/M” value (OCI-AML5 cells; S656 1uM) was 26.6% and 23.9% and 22.5%, the “percentage of cells in S” value (OCI-AML5 cells; S656 1uM) was 21.5% and 12.1% and 18.1% and the “percentage of cells in G1” value (OCI-AML5 cells; S656 3uM) was 69.1% and 60.5% and 65.7%. For the same compound, the “percentage of cells in G2/M” value (OCI-AML5 cells; S656 3uM) was 17.7% and 29.1% and 24.3%, the “percentage of cells in S” value (OCI-AML5 cells; S656 3uM) was 12% and 9.62% and 8.06% and the “synergistic interaction with THZ531 (Bliss score)” value [1] was “moderate to very low synergistic”.
Compound CN(CCOCCOCCN)c1ccc(CC(=O)Nc2ncc(SCc3cccnc3)s2)cc1 [UOM-005790] has a UOM-005790_centered ([2]; centered abundance) of -2.58, a UOM-005790compe_centered [2, 5] of -1.22 and a UOM-005790_vs_Beads_ratio ([2]; immobilized probe vs beads) of -5.48. It also gave a UOM-005790_vs_UOM-005839_ratio ([2]; probe vs probe UOM-005839) of -3.49, a UOM-005790_vs_UOM-005790compe_ratio [2, 6] of -1.36 and a UOM-005790compe_vs_UOM-005839_ratio [2, 7] of -2.12. For the same compound, the UOM-005790compe_vs_Beads_ratio [2, 8] was -4.12, the UOM-005790_centered ([3]; centered abundance) was 0.56 and the UOM-005790compe_centered [3, 5] was -0.869. It also gave a UOM-005790_vs_Beads_ratio ([3]; immobilized probe vs beads) of 0.378, a UOM-005790_vs_UOM-005839_ratio ([3]; probe vs probe UOM-005839) of 0.434 and a UOM-005790_vs_UOM-005790compe_ratio [3, 6] of 1.43. The UOM-005790compe_vs_UOM-005839_ratio [3, 7] was -0.995, the UOM-005790compe_vs_Beads_ratio [3, 8] was -1.05 and the “pull-down enrichment of DDB1” value [4] was “not enriched”.
For Cn1cc(-n2cnc3c(NCc4nc5cc(Cl)c(Cl)cc5[nH]4)nc(N4CCOCC4)nc32)cn1 [SR4835], the tolerability in animals (tumor growth) is listed as “well tolerated” and the “tumor growth in vivo” value (tumor growth) is listed as “effectively inhibited tumor growth”.
